Earlier results on three compounds are cited in patent US20150071857A1, “STEROID HORMONE AND CHOLESTEROL PATHWAYS AS ONE UNIFIED HOMEOSTATIC SYSTEM” (LIGAND PHARMACEUTICALS, INC., priority 2012, published 2015).

Read-outs that look alike come from different tables or passages of the source.

For data set [1] the following is noted: parenterally formulated progestin-only contraceptive, women.
The conditions of data set [2]: large WHI trials.
The conditions of data set [3]: high-dose, postmenopausal women.
The conditions of data set [4]: high dose, on top of statin therapy.

Turning to `CC(=O)O[C@]1(C(C)=O)CC[C@H]2[C@@H]3C[C@H](C)C4=CC(=O)CC[C@]4(C)[C@H]3CC[C@@]21C` [Medroxyprogesterone acetate], in data set [1], the HDL-C change entry was “significant reduction in HDL-C”. Moreover, the thrombosis events result in data set [2] is on record as “doubled the thrombosis events”.
Consider `O=c1c(-c2ccccc2)coc2ccccc12` [isoflavone], for which, in data set [3], the HDL-C change result is on record as “significantly reduced” and the “total T change” value was “significantly reduced”.
Regarding `O=C(O)c1cccnc1` [niacin], the cardiovascular events result in data set [4] is “no significant reduction in cardiovascular events”.
